Results on 20 compounds are retold here after patent US20230026840A1, “COMPOUND USED AS EGFR KINASE INHIBITOR AND USE THEREOF” (TYK MEDICINES, INC., priority 2019, published 2023).

The structures appear in SMILES notation.

In the assay the target is EGFR (L858R/T790M/C797S) kinase (Homo sapiens, UniProt P00533, C797S/L858R/T790M). Nature of the assay: Kinase activity assay against EGFR(L858R/T790M/C797S) kinase at ATP Km concentration (33P-ATP, filter-binding). Format: biochemical. The conditions noted are these: 10 concentrations, 20 min preincubation, 2 h reaction at room temperature. How it is done: The biological activity screening of the compounds will be determined repeatedly at 10 concentrations.
Chain of EGFR (L858R/T790M/C797S) kinase (P00533 25-1210 T790M/C797S/L858R): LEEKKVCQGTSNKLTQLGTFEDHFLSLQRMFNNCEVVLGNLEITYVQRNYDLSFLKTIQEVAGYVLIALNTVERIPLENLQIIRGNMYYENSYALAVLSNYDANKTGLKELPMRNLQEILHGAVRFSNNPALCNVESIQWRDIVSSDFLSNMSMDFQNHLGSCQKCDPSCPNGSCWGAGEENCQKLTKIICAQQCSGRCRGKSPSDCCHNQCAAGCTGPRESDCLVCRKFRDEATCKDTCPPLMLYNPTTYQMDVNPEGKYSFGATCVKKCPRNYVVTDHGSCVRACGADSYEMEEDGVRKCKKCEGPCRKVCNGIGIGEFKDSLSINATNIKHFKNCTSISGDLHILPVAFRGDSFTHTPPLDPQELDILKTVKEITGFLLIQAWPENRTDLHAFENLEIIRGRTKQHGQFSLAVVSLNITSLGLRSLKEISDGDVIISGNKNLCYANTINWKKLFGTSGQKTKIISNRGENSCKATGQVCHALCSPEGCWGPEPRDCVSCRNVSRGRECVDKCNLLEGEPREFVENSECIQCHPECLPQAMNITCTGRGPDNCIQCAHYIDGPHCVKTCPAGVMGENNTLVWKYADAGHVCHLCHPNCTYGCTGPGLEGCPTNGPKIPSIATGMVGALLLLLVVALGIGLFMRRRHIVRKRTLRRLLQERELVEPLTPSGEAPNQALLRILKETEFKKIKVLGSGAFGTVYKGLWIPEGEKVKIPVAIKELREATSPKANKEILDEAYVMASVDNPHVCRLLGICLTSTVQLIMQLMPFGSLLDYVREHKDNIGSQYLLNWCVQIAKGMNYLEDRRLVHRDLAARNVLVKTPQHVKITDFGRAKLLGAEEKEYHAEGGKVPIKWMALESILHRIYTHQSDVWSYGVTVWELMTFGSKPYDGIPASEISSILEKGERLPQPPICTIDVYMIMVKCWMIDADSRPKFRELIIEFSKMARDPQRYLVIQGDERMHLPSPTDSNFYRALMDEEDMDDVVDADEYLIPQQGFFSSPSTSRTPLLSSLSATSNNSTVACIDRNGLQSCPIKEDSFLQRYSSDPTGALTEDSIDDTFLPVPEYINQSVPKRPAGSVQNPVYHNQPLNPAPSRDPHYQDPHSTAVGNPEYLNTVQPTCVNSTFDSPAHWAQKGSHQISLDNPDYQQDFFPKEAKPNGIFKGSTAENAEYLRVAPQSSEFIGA
Each sample was prepared into a solution with a concentration of 10 mM. […]
a. Preparing basic buffer solution and quenching buffer solution for experimental kinase […]
b. Preparing compounds for experimental kinase
The test compound was dissolved in 100% dimethyl sulfoxide to a specific concentration. Integra Viaflo Assist was used to assist DMSO for (continuous) dilution.
Kinase was added to the newly prepared basic reaction buffer
Adding any desired cofactors to the substrate solution.
Acoustic technology (Echo 550; Nanoliter range) was used to feed the compounds in 100% of dimethyl sulfoxide into the kinase reaction mixture and incubated at room temperature for 20 minutes.
33P-ATP (specific activity 10 Ci/l) was added to the reaction mixture to start the reaction.
Incubated at room temperature for 2 hours
Radioactivity was detected by filter-binding method.
Kinase activity data was expressed as the percentage of remaining kinase activity in the test sample compared to the vehicle (dimethyl sulfoxide) reaction. Prism ([…] software) was used to obtain IC50 value and curve-fitting.
As usually defined, the IC50 is the concentration that inhibits the measured activity by half. `[2H]C(F)(F)Oc1cc(N2CC3CCNC3C2)ccc1Nc1ncc(Cl)c(Nc2ccccc2P(C)(C)=O)n1` (centres unmarked) [Compound C12] showed a 50% inhibitory concentration (IC50) of 74.7 nM. As for `[2H]C(F)(F)Oc1cc(N2C[C@H]3CN(C)C[C@H]3C2)ccc1Nc1ncc(Cl)c(Nc2ccccc2P(C)(C)=O)n1` [Compound C1], the figure is 12.4 nM; as for `[2H]C(F)(F)Oc1cc(-n2ncc3c2CN(C)C3)c(C)cc1Nc1ncc(Cl)c(Nc2ccccc2P(C)(C)=O)n1` [Compound C10], 1850 nM. As for `[2H]C(F)(F)Oc1cc(-n2cc3c(n2)CN(C)C3)ccc1Nc1ncc(Cl)c(Nc2ccccc2P(C)(C)=O)n1` [Compound C14], the figure is 13.7 nM; as for `COc1cc2c(cc1Nc1ncc(Cl)c(Nc3ccccc3P(C)(C)=O)n1)CCCN2C(=O)CN1CCN(C)CC1` [Compound C24], 19.5 nM; as for `[2H]C(F)(F)Oc1cc(N2CC3CC(C2)N3C)ccc1Nc1ncc(Cl)c(Nc2ccccc2P(C)(C)=O)n1` [Compound C3], 130 nM. Then `CCc1cc(Nc2nc(Nc3ccc4nccnc4c3P(C)(C)=O)c3cccnc3n2)c(OC)cc1N1C[C@H]2CN(C)C[C@H]2C1` [Compound C28], with 803 nM; and `[2H]C(F)(F)Oc1cc(N2CC3CCN(C)C3C2)ccc1Nc1ncc(Cl)c(Nc2ccccc2P(C)(C)=O)n1` (centres unmarked) [Compound C11], with 17.6 nM. `[2H]C(F)(F)Oc1cc(N2C3CC2CN(C)C3)ccc1Nc1ncc(Cl)c(Nc2ccccc2P(C)(C)=O)n1` [Compound C5]: the 50% inhibitory concentration (IC50) amounted to 321 nM.

The compound `COc1cc2c(cc1Nc1ncc(Cl)c(Nc3ccccc3P(C)(C)=O)n1)CCCN2CC(=O)N1CCN(C)CC1` [Compound C25] showed an IC50 of 803 nM.

Turning to `[2H]C(F)(F)Oc1cc(N2CC3CC(C2)N3)ccc1Nc1ncc(Cl)c(Nc2ccccc2P(C)(C)=O)n1` [Compound C2], the IC50 worked out at 16.6 nM. `[2H]C(F)(F)Oc1cc(N2C3CNCC2C3)ccc1Nc1ncc(Cl)c(Nc2ccccc2P(C)(C)=O)n1` [Compound C13] returned a half-inhibitory concentration (IC50) of 16.6 nM. As for `CCc1cc(Nc2nc(Nc3ccc4nccnc4c3P(C)(C)=O)c3ccccc3n2)c(OC)cc1N1C[C@H]2CN(C)C[C@H]2C1` [Compound C27], the figure is 204 nM. Compound `COc1cc2c(cc1Nc1ncc(Cl)c(Nc3ccccc3P(C)(C)=O)n1)CCCN2CCN1CCN(C)CC1` [Compound C23] came in with an IC50 of 20.5 nM.

As to `[2H]C(F)(F)Oc1cc(-n2cc3c(n2)CNC3)ccc1Nc1ncc(Cl)c(Nc2ccccc2P(C)(C)=O)n1` [Compound C7], the IC50 was 22.3 nM.

As to `[2H]C(F)(F)Oc1cc(N2CC3CCCNC3C2)ccc1Nc1ncc(Cl)c(Nc2ccccc2P(C)(C)=O)n1` (centres unmarked) [Compound C6], the concentration for half-maximal inhibition (IC50) turned out to be 178 nM. On to `CCc1cc(Nc2ncc(Br)c(Nc3ccc4nccnc4c3P(C)(C)=O)n2)c(OC)cc1N1C[C@H]2CN(C)C[C@H]2C1` [Compound C22], for which the concentration for half-maximal inhibition (IC50) was 0.3 nM. As for `[2H]C(F)(F)Oc1cc(N2C[C@H]3CNC[C@H]3C2)ccc1Nc1ncc(Cl)c(Nc2ccccc2P(C)(C)=O)n1` [Compound C4], the figure is 107 nM; as for `[2H]C(F)(F)Oc1cc(-n2cc3c(n2)CN(C)C3)c(C)cc1Nc1ncc(Cl)c(Nc2ccccc2P(C)(C)=O)n1` [Compound C9], 181 nM; as for `[2H]C(F)(F)Oc1cc(N2C[C@H]3COC[C@H]3C2)ccc1Nc1ncc(Cl)c(Nc2ccccc2P(C)(C)=O)n1` [Compound C20], 69.6 nM.
